Results from publication PMC5844890 (Scientific Reports, 2018).

What was measured:
A2780 cells = assay: Anti-proliferative activity, A2780 ovarian carcinoma cells; type: cell-based, human; details: Homo sapiens, A2780; mean ± standard error of three independent experiments
From the text: (§1) One of the most relevant causes of tumor resistance to chemotherapy is the overexpression of membrane pumps which remove the chemotherapeutic agents from the treated cells.

HMEC-1 cells = assay: IncuCyte scratch wound migration assay with PI uptake; type: cell-based; details: for uptake of PI (toxicity): at the lowest concentration inhibiting wound closure (0.5, 0.06 and 0.06 µM)
Experimental: Proper tubulin organization is not only required for cell division but also for cell motility and migration. Therefore, we evaluated the capacity of the compounds to inhibit the migration of HMEC-1 endothelial cells. To this end, we used the 96-well IncuCyte® scratch wound assay. After the creation of a cell-free zone (wound) in a confluent cell monolayer, compounds were added, and relative wound density was measured every minute and visualized in time-course plots. PI was added to all wells to visualize toxicity over time, i.e. only dead cells take up this cell-impermeable dye.
Figure 7 Inhibition of HMEC-1 migration. The 96-well IncuCyte® scratch wound assay was used to create a cell-free zone (wound) in a confluent cell monolayer. Next, compounds were added and the relative wound density was measured every minute and visualized in time-course plots (left panels). PI is added to all wells to visualize toxicity over time, i.e. only dead cells take up this cell-impermeable dye (right panels). Average ± SEM (n = 3) are shown.
Wounds were created in confluent HMEC-1 cells by means of the “Incucyte® wound maker”. Next, different concentrations of compound and PI were added and images were taken every 2 min for the duration of the experiment. The algorithm masks each phase-contrast image to identify the position of the wounded (cell-free) and unwounded (cell-occupied) zones. Relative wound density is calculated and visualized in time-course plots.

A2780AD cells = assay: Anti-proliferative activity, A2780AD (MDR overexpressing P-glycoprotein) ovarian carcinoma cells; type: cell-based, human; details: Homo sapiens, A2780AD; P-glycoprotein overexpressing resistant line; mean ± standard error of three independent experiments; read-out: A2780 AD IC50
From the text: as §1

CEM cells = assay: Anti-proliferative activity, CEM lymphoblastic leukemia cells (Coulter counting); type: cell-based; details: Homo sapiens, CCRF-CEM; mean ± SD of three independent experiments; 96 h; read-out: Tumor cells IC50 CEM
From the text: (§2) The anti-proliferative activity of the synthesized benzofurane derivatives was studied in three human cancer cell lines [breast carcinoma (MDA-MB-231), lymphoblastic leukemia (CEM) and cervical carcinoma (HeLa) cells] and one endothelial cell line [human microvascular endothelial cells (HMEC-1)].
(§3) The human microvascular endothelial cell line HMEC-1 was obtained at passage 12 from the Centers for Disease Control and Prevention (Atlanta, GA, USA) and used from passage 17 till 27. Human breast carcinoma (MDA-MB-231), human cervical carcinoma (HeLa) and human T-lymphoid (CEM) cells were obtained from ATCC (Middlesex, UK). Cell lines were maintained in culture for up to 3 months and grown in DMEM, supplemented with 10% FBS, 0.01 M Hepes and 1 mM sodium pyruvate. All cells were cultured in a humidified 5% CO2 incubator at 37 °C.
(§4) HMEC-1 cells were seeded in 48-well plates at 20,000 cells/well. After 24 h, 5-fold dilutions of the compounds were added. The cells were allowed to proliferate 4 days in the presence of the compounds, trypsinized, and counted by means of a Coulter counter (Analis, Belgium). HeLa and MDA-MB-231 cells were seeded in 48-well plates at 10,000 cells/well. After 24 h, different concentrations of the compounds were added. After 3 days of incubation, the cells were trypsinized and counted in a Coulter counter. Suspension cells (human lymphoid Cem cells) were seeded in 96-well plates at 60,000 cells/well in the presence of different concentrations of the compounds, allowed to proliferate for 96 h, and counted in a Coulter counter. The 50% inhibitory concentration (IC50) was defined as the compound concentration required to reduce cell proliferation by 50%.

MDA-MB-231 cells [1] = assay: Anti-proliferative activity, MDA-MB-231 breast carcinoma cells (Coulter counting); type: cell-based; details: Homo sapiens, MDA-MB-231, 72 h; mean ± SD of three independent experiments; 3 days of incubation; read-out: Tumor cells IC50 MDA-MB-231
From the text: as §2, §3, §4

MDA-MB-231 cells [2] = assay: Cell cycle analysis (propidium iodide, flow cytometry); type: cell-based, human; details: 24 h treatment
Experimental: Tubulin-binding agents interfere with mitotic spindle formation during cell division. […] Thus, we investigated whether 27 and 28 affect the progression of human breast cancer MDA-MB-231 cells through the cell cycle. […] In contrast, compounds 27 and 28 arrested the cell cycle in the M phase (mitosis) at concentrations as low as 0.03 and 0.1 μM (for compound 27 and 28 respectively).
Figure 6 Mechanism of action of the benzofurane derivatives. (A) Inhibition of cell cycle progression. MDA-MB-231 cells were treated with DMSO (control) or compounds 8, 27 or 28 for 24 h. Next, the cells were harvested, stained with propidium iodide (PI), and cell cycle distribution was evaluated by flow cytometry. Percentages of cells in the different phases of the cell cycle are indicated. (B) Caspase-3 activity. MDA-MB-231 cells were seeded in 48-well plates at 40,000 cells/cm². After 24 h, different concentrations of compounds 8, 27 or 28 and 2 µM of the caspase-3 substrate DEVD-NucView488 were added. After 16 h, the cells were incubated with 2 µg/ml Hoechst 33342 to stain the nucleus, and imaged. (C) Disruption of the vascular network. HMEC-1 cells were cultured on matrigel for 3 h to allow the formation of tube-like structures. Next, different concentrations of compounds were added. Upper panel: After 90 min, pictures were taken and the tubular network was scored (3: intact network, 0: network completely destroyed). Bars show average ± SEM (n = 4). Lower panel: Microscopic pictures of the tubular network 3 h after addition of compound.
MDA-MB-231 cells were seeded in 6-well plates at 125,000 cells/well in DMEM with 10% FBS. After 24 h, the cells were exposed to different concentrations of the compounds. After 24 h, the DNA of the cells was stained with propidium iodide using the CycleTEST PLUS DNA Reagent Kit (BD Biosciences, San Jose, CA). The DNA content of the stained cells was assessed by flow cytometry on a FACSCalibur flow cytometer and analyzed with CellQuest software (BD Biosciences) within 3 h after staining. Cell debris and clumps were excluded from the analysis by appropriate dot plot gating. Percentages of sub-G1, G1, S, and G2/M cells were estimated using appropriate region markers.

Row | Compound | IC50 (A2780 cells) [nM] | lowest concentration inhibiting wound closure (HMEC-1 cells) [µM] | uptake of PI (toxicity) (HMEC-1 cells) | IC50 (A2780AD cells) [nM] | IC50 (CEM cells) [nM] | IC50 (MDA-MB-231 cells [1]) [nM] | cells in the sub-G1 phase (indicative of apoptosis) (MDA-MB-231 cells [2]) | lowest concentration arresting the cell cycle in the M phase (MDA-MB-231 cells [2]) [µM]
1 | COCc1cc2cccc(NC(C)=C3C(=O)CC(c4ccccc4)CC3=O)c2o1 (stereo not shown) [Compound 27, 2-(1-((2-(Methoxymethyl)benzofuran-7-yl)amino)ethylidene)-5-phenylcyclohexane-1,3-dione] | 23 ± 2 | 0.06 | No increased uptake of PI | 39 ± 15 | 31 ± 2 | 9 ± 1 | caused an increase of cells in the sub-G1 phase | 0.03
2 | CC(Nc1cccc2cc(COCCCO)oc12)=C1C(=O)CC(c2ccccc2)CC1=O (stereo not shown) [Compound 28, 2-(1-((2-((3-Hydroxypropoxy)methyl)benzofuran-7-yl)amino)ethylidene)-5-phenylcyclohexane-1,3-dione] | 38 ± 7 | 0.06 | No increased uptake of PI | 76 ± 15 | 51 ± 18 | 12 ± 5 | caused an increase of cells in the sub-G1 phase | 0.1
